Experimental data published in patent publication US10167262B2, “Herbicidal substituted 3-arylpyrazoles” (FMC CORPORATION, priority 2014, dated 2019).

How the values were obtained:
Assay in all cases: Test E pre-/postemergence greenhouse test, plant response rating 0-100
Type in all cases: in vivo
[1] = test system: Brazilian crabgrass (Digitaria horizontalis); conditions: Digitaria horizontalis, post-emergence, Postemergence, scale 0 to 100, read-out: Plant response rating, Crabgrass, Brazil
Summary of the method: (§1)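 Rated visually against controls 14-21 days after treatment on a 0-100 scale (100 = complete control). Pre- and postemergence sprays used a non-phytotoxic solvent mixture with surfactant. Preemergence seeds were in silt loam; postemergence plants were in peat-based medium at the 1- to 4-leaf stage (2-18 cm).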

[2] = test system: Italian ryegrass (Lolium multiflorum); conditions: scale 0 to 100; for Ryegrass, Italian plant response rating: Preemergence
Summary of the method: as §1

[3] = test system: arrowleaf sida (Sida rhombifolia); conditions: for Arrowleaf Sida plant response rating: Preemergence
Summary of the method: as §1

[4] = test system: barnyardgrass (Echinochloa crus-galli); conditions: scale 0 to 100; for Barnyardgrass plant response rating: Preemergence
Summary of the method: as §1

corn (Zea mays) = conditions: scale 0 to 100; for Corn plant response rating: Preemergence
Summary of the method: as §1

[5] = test system: dayflower (Virginia (VA) dayflower, Commelina virginica); conditions: scale 0 to 100; for Dayflower, VA plant response rating: Preemergence
Summary of the method: as §1

[6] = test system: field bindweed (Convolvulus arvensis); conditions: scale 0 to 100; for Field Bindweed plant response rating: Preemergence
Summary of the method: as §1

[7] = test system: hairy beggarticks (Bidens pilosa); conditions: scale 0 to 100; for Beggarticks plant response rating: Preemergence
Summary of the method: as §1

[8] = test system: palmer pigweed (Amaranthus palmeri); conditions: scale 0 to 100; for Pigweed, Palmer plant response rating: Preemergence
Summary of the method: as §1

[9] = test system: sandbur (southern sandbur, Cenchrus echinatus); conditions: scale 0 to 100; for Sandbur plant response rating: Preemergence
Summary of the method: as §1

[10] = test system: waterhemp (common waterhemp, Amaranthus rudis); conditions: scale 0 to 100; for Waterhemp plant response rating: Preemergence
Summary of the method: as §1

[11] = test system: wild poinsettia (Euphorbia heterophylla); conditions: scale 0 to 100; for Poinsettia, Wild plant response rating: Preemergence
Summary of the method: as §1

## O=C(c1ccccc1)c1cn(CO)nc1-c1cc(Cl)cc(Cl)c1 [Compound 15, [3-(3,5-dichlorophenyl)-1-(hydroxymethyl)-1H-pyrazol-4-yl]phenylmethanone]
[1]; 31 g ai/ha
  pest or weed control at 31 g/ha: 0%
[1]; 62 g ai/ha
  pest or weed control at 62 g/ha: 0%
[1]; 125 g ai/ha
  pest or weed control at 125 g/ha: 0%
[1]; 250 g ai/ha
  pest or weed control at 250 g/ha: 0%
[1]; 500 g ai/ha
  pest or weed control at 500 g/ha: 0%
[2]; Lolium multiflorum, post-emergence, Postemergence, 31 g ai/ha
  pest or weed control at 31 g/ha: 0%
[2]; Lolium multiflorum, post-emergence, Postemergence, 62 g ai/ha
  pest or weed control at 62 g/ha: 0%
[2]; Lolium multiflorum, post-emergence, Postemergence, 125 g ai/ha
  pest or weed control at 125 g/ha: 0%
[2]; Lolium multiflorum, post-emergence, Postemergence, 250 g ai/ha
  pest or weed control at 250 g/ha: 0%
[2]; Lolium multiflorum, post-emergence, Postemergence, 500 g ai/ha
  pest or weed control at 500 g/ha: 0%
[2]; 31 g ai/ha
  Ryegrass, Italian plant response rating: 0
[2]; 62 g ai/ha
  Ryegrass, Italian plant response rating: 0
[2]; 125 g ai/ha
  Ryegrass, Italian plant response rating: 0
[2]; 250 g ai/ha
  Ryegrass, Italian plant response rating: 0
[2]; 500 g ai/ha
  Ryegrass, Italian plant response rating: 0
[3]; 31 g ai/ha, scale 0 to 100
  Arrowleaf Sida plant response rating: 25
[3]; 62 g ai/ha, scale 0 to 100
  Arrowleaf Sida plant response rating: 30
[3]; 125 g ai/ha, scale 0 to 100
  Arrowleaf Sida plant response rating: 90
[3]; 250 g ai/ha, scale 0 to 100
  Arrowleaf Sida plant response rating: 100
[3]; 500 g ai/ha, scale 0 to 100
  Arrowleaf Sida plant response rating: 98
[3]; Sida rhombifolia, post-emergence, Postemergence, 31 g ai/ha, scale 0 to 100
  pest or weed control at 31 g/ha: 98%
[3]; Sida rhombifolia, post-emergence, Postemergence, 62 g ai/ha, scale 0 to 100
  pest or weed control at 62 g/ha: 90%
[3]; Sida rhombifolia, post-emergence, Postemergence, 125 g ai/ha, scale 0 to 100
  pest or weed control at 125 g/ha: 98%
[3]; Sida rhombifolia, post-emergence, Postemergence, 250 g ai/ha, scale 0 to 100
  pest or weed control at 250 g/ha: 98%
[3]; Sida rhombifolia, post-emergence, Postemergence, 500 g ai/ha, scale 0 to 100 (0 no effect, 100 complete control)
  pest or weed control at 500 g/ha: 98%
[4]; Echinochloa crus-galli, post-emergence, Postemergence, 31 g ai/ha
  pest or weed control at 31 g/ha: 0%
[4]; Echinochloa crus-galli, post-emergence, Postemergence, 62 g ai/ha
  pest or weed control at 62 g/ha: 0%
[4]; Echinochloa crus-galli, post-emergence, Postemergence, 125 g ai/ha
  pest or weed control at 125 g/ha: 0%
[4]; Echinochloa crus-galli, post-emergence, Postemergence, 250 g ai/ha
  pest or weed control at 250 g/ha: 0%
[4]; Echinochloa crus-galli, post-emergence, Postemergence, 500 g ai/ha
  pest or weed control at 500 g/ha: 0%
[4]; 31 g ai/ha
  Barnyardgrass plant response rating: 0
[4]; 62 g ai/ha
  Barnyardgrass plant response rating: 0
[4]; 125 g ai/ha
  Barnyardgrass plant response rating: 0
[4]; 250 g ai/ha
  Barnyardgrass plant response rating: 0
[4]; 500 g ai/ha
  Barnyardgrass plant response rating: 0
Corn (Zea mays); 31 g ai/ha
  Corn plant response rating: 0
Corn (Zea mays); 62 g ai/ha
  Corn plant response rating: 0
Corn (Zea mays); 125 g ai/ha
  Corn plant response rating: 0
Corn (Zea mays); 250 g ai/ha
  Corn plant response rating: 0
Corn (Zea mays); 500 g ai/ha
  Corn plant response rating: 0
Corn (Zea mays); Zea mays, post-emergence, Postemergence, 31 g ai/ha
  Corn plant response rating (crop injury, 0 = no effect, 100 = complete kill) at 31 g/ha: 0%
Corn (Zea mays); Zea mays, post-emergence, Postemergence, 62 g ai/ha
  Corn plant response rating (crop injury, 0 = no effect, 100 = complete kill) at 62 g/ha: 0%
Corn (Zea mays); Zea mays, post-emergence, Postemergence, 125 g ai/ha
  Corn plant response rating (crop injury, 0 = no effect, 100 = complete kill) at 125 g/ha: 0%
Corn (Zea mays); Zea mays, post-emergence, Postemergence, 250 g ai/ha
  Corn plant response rating (crop injury, 0 = no effect, 100 = complete kill) at 250 g/ha: 0%
Corn (Zea mays); Zea mays, post-emergence, Postemergence, 500 g ai/ha
  Corn plant response rating (crop injury, 0 = no effect, 100 = complete kill) at 500 g/ha: 0%
[5]; Commelina virginica, post-emergence, Postemergence, 31 g ai/ha
  pest or weed control at 31 g/ha: 0%
[5]; Commelina virginica, post-emergence, Postemergence, 62 g ai/ha
  pest or weed control at 62 g/ha: 0%
[5]; Commelina virginica, post-emergence, Postemergence, 125 g ai/ha
  pest or weed control at 125 g/ha: 0%
[5]; Commelina virginica, post-emergence, Postemergence, 250 g ai/ha
  pest or weed control at 250 g/ha: 0%
[5]; Commelina virginica, post-emergence, Postemergence, 500 g ai/ha
  pest or weed control at 500 g/ha: 0%
[5]; 31 g ai/ha
  Dayflower, VA plant response rating: 0
[5]; 62 g ai/ha
  Dayflower, VA plant response rating: 0
[5]; 125 g ai/ha
  Dayflower, VA plant response rating: 0
[5]; 500 g ai/ha
  Dayflower, VA plant response rating: 0
[6]; Convolvulus arvensis, post-emergence, Postemergence, 31 g ai/ha
  pest or weed control at 31 g/ha: 0%
[6]; Convolvulus arvensis, post-emergence, Postemergence, 62 g ai/ha
  pest or weed control at 62 g/ha: 0%
[6]; Convolvulus arvensis, post-emergence, Postemergence, 125 g ai/ha
  pest or weed control at 125 g/ha: 0%
[6]; Convolvulus arvensis, post-emergence, Postemergence, 250 g ai/ha
  pest or weed control at 250 g/ha: 0%
[6]; Convolvulus arvensis, post-emergence, Postemergence, 500 g ai/ha
  pest or weed control at 500 g/ha: 0%
[6]; 31 g ai/ha
  Field Bindweed plant response rating: 0
[6]; 62 g ai/ha
  Field Bindweed plant response rating: 0
[6]; 125 g ai/ha
  Field Bindweed plant response rating: 0
[6]; 250 g ai/ha
  Field Bindweed plant response rating: 0
[6]; 500 g ai/ha
  Field Bindweed plant response rating: 0
[7]; Bidens pilosa, post-emergence, Postemergence, 31 g ai/ha
  pest or weed control at 31 g/ha: 90%
[7]; Bidens pilosa, post-emergence, Postemergence, 62 g ai/ha
  pest or weed control at 62 g/ha: 98%
[7]; Bidens pilosa, post-emergence, Postemergence, 125 g ai/ha
  pest or weed control at 125 g/ha: 98%
[7]; Bidens pilosa, post-emergence, Postemergence, 250 g ai/ha
  pest or weed control at 250 g/ha: 100%
[7]; Bidens pilosa, post-emergence, Postemergence, 500 g ai/ha
  pest or weed control at 500 g/ha: 98%
[7]; 31 g ai/ha
  Beggarticks plant response rating: 0
[7]; 62 g ai/ha
  Beggarticks plant response rating: 0
[7]; 125 g ai/ha
  Beggarticks plant response rating: 0
[7]; 250 g ai/ha
  Beggarticks plant response rating: 25
[7]; 500 g ai/ha
  Beggarticks plant response rating: 80
[8]; Amaranthus palmeri, post-emergence, Postemergence, 31 g ai/ha
  pest or weed control at 31 g/ha: 35%
[8]; Amaranthus palmeri, post-emergence, Postemergence, 62 g ai/ha
  pest or weed control at 62 g/ha: 75%
[8]; Amaranthus palmeri, post-emergence, Postemergence, 125 g ai/ha
  pest or weed control at 125 g/ha: 75%
[8]; Amaranthus palmeri, post-emergence, Postemergence, 250 g ai/ha
  pest or weed control at 250 g/ha: 98%
[8]; Amaranthus palmeri, post-emergence, Postemergence, 500 g ai/ha
  pest or weed control at 500 g/ha: 100%
[8]; 31 g ai/ha
  Pigweed, Palmer plant response rating: 0
[8]; 62 g ai/ha
  Pigweed, Palmer plant response rating: 0
[8]; 125 g ai/ha
  Pigweed, Palmer plant response rating: 0
[8]; 250 g ai/ha
  Pigweed, Palmer plant response rating: 65
[8]; 500 g ai/ha
  Pigweed, Palmer plant response rating: 100
[9]; Cenchrus echinatus, post-emergence, Postemergence, 31 g ai/ha
  pest or weed control at 31 g/ha: 0%
[9]; Cenchrus echinatus, post-emergence, Postemergence, 62 g ai/ha
  pest or weed control at 62 g/ha: 0%
[9]; Cenchrus echinatus, post-emergence, Postemergence, 125 g ai/ha
  pest or weed control at 125 g/ha: 0%
[9]; Cenchrus echinatus, post-emergence, Postemergence, 250 g ai/ha
  pest or weed control at 250 g/ha: 0%
[9]; Cenchrus echinatus, post-emergence, Postemergence, 500 g ai/ha
  pest or weed control at 500 g/ha: 0%
[9]; 31 g ai/ha
  Sandbur plant response rating: 0
[9]; 62 g ai/ha
  Sandbur plant response rating: 30
[9]; 125 g ai/ha
  Sandbur plant response rating: 50
[9]; 250 g ai/ha
  Sandbur plant response rating: 40
[9]; 500 g ai/ha
  Sandbur plant response rating: 35
[10]; Amaranthus tuberculatus, post-emergence, Postemergence, 31 g ai/ha
  pest or weed control at 31 g/ha: 80%
[10]; Amaranthus tuberculatus, post-emergence, Postemergence, 62 g ai/ha
  pest or weed control at 62 g/ha: 98%
[10]; Amaranthus tuberculatus, post-emergence, Postemergence, 125 g ai/ha
  pest or weed control at 125 g/ha: 95%
[10]; Amaranthus tuberculatus, post-emergence, Postemergence, 250 g ai/ha
  pest or weed control at 250 g/ha: 100%
[10]; Amaranthus tuberculatus, post-emergence, Postemergence, 500 g ai/ha
  pest or weed control at 500 g/ha: 100%
[10]; 31 g ai/ha
  Waterhemp plant response rating: 0
[10]; 62 g ai/ha
  Waterhemp plant response rating: 70
[10]; 125 g ai/ha
  Waterhemp plant response rating: 90
[10]; 250 g ai/ha
  Waterhemp plant response rating: 75
[10]; 500 g ai/ha
  Waterhemp plant response rating: 100
[11]; Euphorbia heterophylla, post-emergence, Postemergence, 31 g ai/ha, read-out: Plant response rating, Poinsettia, Wild
  pest or weed control at 31 g/ha: 0%
[11]; Euphorbia heterophylla, post-emergence, Postemergence, 62 g ai/ha, read-out: Plant response rating, Poinsettia, Wild
  pest or weed control at 62 g/ha: 0%
[11]; Euphorbia heterophylla, post-emergence, Postemergence, 125 g ai/ha, read-out: Plant response rating, Poinsettia, Wild
  pest or weed control at 125 g/ha: 0%
[11]; Euphorbia heterophylla, post-emergence, Postemergence, 250 g ai/ha, read-out: Plant response rating, Poinsettia, Wild
  pest or weed control at 250 g/ha: 0%
[11]; Euphorbia heterophylla, post-emergence, Postemergence, 500 g ai/ha, read-out: Plant response rating, Poinsettia, Wild
  pest or weed control at 500 g/ha: 0%
[11]; 125 g ai/ha
  Poinsettia, Wild plant response rating: 0
[11]; 250 g ai/ha
  Poinsettia, Wild plant response rating: 0
[11]; 500 g ai/ha
  Poinsettia, Wild plant response rating: 0
